Experimental findings from PMC8910920 (International Journal of Molecular Sciences, 2022) are described below.

Data set [1] has as its target T1, rTRPM8 (Rattus norvegicus, UniProt Q8R455).
T1 construct: expressed in transfected cells
As to the kind of experiment: Ca2+ microfluorography assay, HEK293 cells expressing rTRPM8, menthol activation. Type of data set: cell-based. Here is the method: This represents a similar activity as β–lactam 2 and a somewhat higher potency than the model TRPM8 antagonists AMTB.
To measure the effect of the compounds against TRPM8 activity we used microfluorometry-based calcium flux assays with Fluo-4 NW Ca^2+ dye and fluorescence as described in [30]. Briefly, human embryonic kidney cell line (HEK293) cells stably transfected with rTRPM8 or hTRPM8 were seeded in 96-well plates at a cell density of 30,000 cells. After 2 days the medium was replaced with 100 μL of the dye, Fluo-4 NW, loading solution supplemented with probenecid 2.5 mM and incubated 1 h at 37 °C. The TRPM8 activity was measured using POLASTAR plate reader (BMG Labtech) setting the excitation wavelength at 485 nm and the emission wavelength at 520 nm. The baseline fluorescence was recorded for 3 cycles before the addition of vehicle compound at different concentrations and the antagonist, 10 μM AMTB. Fluorescence intensity was recorded during 7 more cycles and 100 μM menthol was added. Fluorescence intensity was recorded during 10 more cycles.
Data analysis: The Z-factor was calculated in each assay using the following equation: […]. In all the experiments, the Z-factor was ≥0.5. The effect of the compounds against TRPM8 activity was determined by normalizing their effect on the maximum fluorescence observed after application of 100 μM menthol. Decrease in menthol signal was expressed as percentage of inhibition (%). All data are expressed as the mean ± standard deviation (SD). Data are expressed as the concentration exerting a half-maximal inhibition of agonist-induced [Ca^2+]i elevation (IC50), which was calculated again using GraphPad Prism® software. All determinations were performed in triplicate (n = 3) in 3 independent experiments (N = 3).

For data set [2], the system named is DRG sensory neurons. The data set is described as follows: Current-clamp, membrane resting potential of DRG sensory neurons. The format is cell-based, rat. As to conditions: 10 μM. As for the experimental part:
In order to test if compound RGM8-51 could affect the membrane resting potential (MRP) of DRG sensory neurons, we also measured MRP of sensory neurons in the current-clamp mode of patch-clamp.
Changes in membrane potential were studied in neonatal DRGs isolated from 3–5 days-old Wistar rats. After isolation, DRGs were digested first using collagenase type IA (0.25% w/v) in DMEM GlutaMax with penicillin/streptomycin (P/S) solution (1% v/v) for 1 h (37 °C, 5% CO2, ThermoScientific incubator) and secondly by mechanical dissociation. Single cell suspension was passed through a […] cell strainer and washed with DMEM GlutaMax with FBS (10%v/v) and P/S solution (1% v/v). […]
For current-clamp recordings from rat DRG neurons the intracellular pipette solution contained (in mM): 4 NaCl, 126 K gluconate, 0.02 CaCl2, 1 MgSO4, 5 HEPES, 15 glucose, 3 ATP, 0.1 GTP and 5 EGTA, pH 7.2 with KOH and the extracellular solution contained (in mM): 140 NaCl, 4 KCl, 2 CaCl2, 2 MgCl2, 10 HEPES, 5 glucose and 20 mannitol, pH 7.4 with NaOH. The membrane potential was measured in the absence and the presence of compound RGM8-51 at 10 μM in a time interval of 1 min.
Data analysis: For the whole-cell patch-clamp experiments, results are expressed as the percentage of remaining activation of the TRPM8 channel. […] All data are expressed as the mean ± standard error of the mean (SEM) (n = 5–8). […]

The nature of data set [3]: In vitro metabolism in human liver microsomes. Type of data set: in vitro ADME.
The subject of data set [4] is OXA-induced cold hypersensitivity in male mice. The data set is described as follows: Oxaliplatin-induced peripheral neuropathy, acetone drop test. The format is in vivo, mouse. As for the experimental part:
For the OXA-induced peripheral neuropathy assay, OXA was […] injected on days 1, 3 and 5 to male mice, at a 6 mg/kg dose, to induce hypersensitivity to cold, as monitored by the acetone drop test (Figure 6).
For the experiments, 6–8 weeks C57 male mice (≈30g) (Harlam, Holland) were used. All experiments were approved by the Institutional Animal and Ethical Committee of the Universidad Miguel Hernandez and Comunidad Valencian ethical committees (2021/VSC/PEA/0089) where experiments were conducted and they were in accordance with the guidelines of the Economic European Community and the Committee for Research and Ethical Issues of the International Association for the Study of Pain. All parts of the study concerning animal care were performed under the control of veterinarians. Experiments were performed blinded for NTG and compound treatment.
Oxaliplatin (OXA, Tocris, Bristol, UK) was used to induce peripheral neuropathy and was dissolved in water with gentle warming as formerly described. OXA was intraperitoneally injected on days 1, 3 and 5 at a 6 mg/kg dose. […] Cold chemical sensitivity was assessed using the acetone drop test. […] Positive nociceptive responses (licking time in seconds) were recorded with a digital stopwatch during 20 s (cut-off). Acetone was applied twice in an interval of 5 min between each application and the mean was calculated.

T1 sequence (Q8R455 whole entry): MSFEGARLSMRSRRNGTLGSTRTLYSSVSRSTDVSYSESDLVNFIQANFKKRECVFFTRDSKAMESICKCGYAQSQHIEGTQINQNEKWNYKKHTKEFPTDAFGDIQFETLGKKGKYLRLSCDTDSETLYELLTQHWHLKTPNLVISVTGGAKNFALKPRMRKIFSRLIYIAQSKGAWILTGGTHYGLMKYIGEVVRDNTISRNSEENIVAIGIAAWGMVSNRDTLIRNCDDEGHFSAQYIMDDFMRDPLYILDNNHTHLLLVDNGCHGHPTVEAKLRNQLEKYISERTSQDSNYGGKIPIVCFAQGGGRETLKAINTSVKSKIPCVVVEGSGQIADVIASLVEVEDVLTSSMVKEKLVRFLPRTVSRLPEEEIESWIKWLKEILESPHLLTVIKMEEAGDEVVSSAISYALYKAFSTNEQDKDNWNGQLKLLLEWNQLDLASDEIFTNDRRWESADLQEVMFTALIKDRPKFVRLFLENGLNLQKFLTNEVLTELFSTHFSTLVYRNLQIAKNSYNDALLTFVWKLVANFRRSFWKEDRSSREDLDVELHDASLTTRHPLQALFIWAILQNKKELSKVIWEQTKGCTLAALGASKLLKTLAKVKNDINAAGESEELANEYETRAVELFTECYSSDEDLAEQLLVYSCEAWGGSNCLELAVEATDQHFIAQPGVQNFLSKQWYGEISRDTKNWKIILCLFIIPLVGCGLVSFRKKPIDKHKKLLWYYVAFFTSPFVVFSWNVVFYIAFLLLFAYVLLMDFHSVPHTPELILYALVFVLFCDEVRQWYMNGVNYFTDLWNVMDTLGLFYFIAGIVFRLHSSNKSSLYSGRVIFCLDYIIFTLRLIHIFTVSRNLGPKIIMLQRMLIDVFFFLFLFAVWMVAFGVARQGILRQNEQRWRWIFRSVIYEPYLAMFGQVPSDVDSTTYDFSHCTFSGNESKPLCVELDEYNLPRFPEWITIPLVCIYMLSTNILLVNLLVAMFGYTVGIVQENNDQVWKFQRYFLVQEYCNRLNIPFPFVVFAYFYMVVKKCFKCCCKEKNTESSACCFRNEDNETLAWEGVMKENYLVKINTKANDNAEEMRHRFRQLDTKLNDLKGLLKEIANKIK

Regarding `C[C@@H]1C(=O)N(C[C@H](Cc2ccccc2)N(Cc2ccccc2)Cc2ccccc2)[C@]1(Cc1ccccc1)C(=O)OC(C)(C)C` [RGM8-51, 4(S)-Benzyl-3S-methyl-4-(tert-butoxy)carbonyl-1-[(2′S-dibenzylamino-3′-phenyl)prop-1′-yl]-2-oxoazetidine], half-maximal inhibition in data set [1] (HEK293-rTRPM8, 100 μM menthol) (IC50) required 1.06 ± 1.21 µM. Further, the “ability to activate TRPM8 channels (agonist activity)” value in data set [1] (HEK293 cells expressing rat or human TRPM8) is “did not have any ability to activate TRPM8 channels”. Further, in data set [2], the “effect on membrane resting potential (MRP)” value is reported as “did not alter the MRP”. Further, in data set [3], the “Metabolism Clint” value came to 614 µL/min/mg and the “Metabolism t1/2” value was 11 min. The compound also gave an intrinsic metabolic clearance (microsomal CLint) in data set [3] (human, liver microsomes) of 614 µL/min/mg. In addition, the half-life in data set [3] (human, liver microsomes, read-out: Metabolism t1/2) came out at 11.3 min. Further, the “OXA-induced cold hypersensitivity (cold-induced paw licking)” value in data set [4] (0.1 µg i.pl., sustained activity from 15 to 30 min) was “still highly active”. In addition, in data set [4] (1 μg i.pl., significant at 15 min, peak effect from 30 to 60 min), the “OXA-induced cold hypersensitivity (cold-induced paw licking)” value is recorded as “attenuates the cold-induced paw licking in a significant manner”.

In general, IC50 refers to the point on the concentration scale where inhibition reaches its midpoint. A low value points to higher potency. As usually defined, the microsomal CLint is a measure of how fast metabolising enzymes remove a compound, apart from limits set by blood flow.
